# Laboratory results taken from patent publication US11713309B2, “Solid forms of Cerdulatinib” (Alexion Pharmaceuticals, Inc., priority 2018, dated 2023).
# Structures can show the parent of a compound that is named as a salt.
# What was measured:
# Format in all cases: physicochemical
# [1] = Kinetic solubility in water; conditions: 37° C.; for pH of supernatant: water (native pH 7.6)
# Protocol: (§1) Kinetic solubility testing was conducted as follows: About 40-55 mg material was weighed into a 5-mL EP pipe. 4 mL of water/bio-relevant media (SGF, FaSSIF, or FeSSIF) was added into the corresponding sample pipe (drug loading: ˜10 mg/mL calculated as freebase). The pipes were capped tightly and the material was verified to be in contact with the media. The sample vials were placed on a roller and start rolling at 37° C. (rate: 25 r/min). Samples were taken at 1, 2, 4, 24 h. For each time point, 1.0 mL of suspension was transferred into a 2-mL centrifuge tube and the samples were centrifuged. The supernatant was filtered via 0.45 μm PTFE membrane and solubility and pH were measured. An XRPD test on residual solids was conducted.
# [2] = Kinetic solubility in SGF; conditions: for Solubility (mg/mL) 1 h / Solubility (mg/mL) 2 h / Solubility (mg/mL) 4 h / Solubility (mg/mL) 24 h: SGF, 37° C.; for Solubility (mg/mL) 1 h: drug loading ~10 mg/mL as freebase; for pH 1 h / pH 2 h / pH 4 h / pH 24 h: supernatant, SGF (native pH 1.8)
# Protocol: as §1
# [3] = Kinetic solubility in FaSSIF; conditions: for Solubility (mg/mL) 1 h / Solubility (mg/mL) 2 h / Solubility (mg/mL) 4 h / Solubility (mg/mL) 24 h: 37° C.; for Solubility (mg/mL) 1 h: drug loading ~10 mg/mL as freebase; for pH 1 h / pH 2 h / pH 4 h / pH 24 h: supernatant, FaSSIF (native pH 6.5)
# Protocol: as §1
# [4] = Kinetic solubility in FeSSIF; conditions: for Solubility (mg/mL) 1 h / Solubility (mg/mL) 2 h / Solubility (mg/mL) 4 h / Solubility (mg/mL) 24 h: 37° C.; for Solubility (mg/mL) 1 h: drug loading ~10 mg/mL as freebase; for Final Form: XRPD of residual solids; for Solubility (mg/mL) 1 h / Final Form / pH 1 h: 1 h; for Solubility (mg/mL) 2 h / Final Form / pH 2 h: 2 h; for Solubility (mg/mL) 4 h / Final Form / pH 4 h: 4 h; for pH 1 h / pH 2 h / pH 4 h / pH 24 h: supernatant
# Protocol: as §1
# [5] = 1 h, listed as Naphthalene disulfonate Type A
# [6] = 2 h, listed as Naphthalene disulfonate Type A
# [7] = 4 h, listed as Naphthalene disulfonate Type A
# [8] = 24 h, listed as Naphthalene disulfonate Type A
# [9] = listed as Naphthalene disulfonate Type A
# [10] = 24 h, listed as Mesylate Type A
smiles,measurement,setting,value
CCS(=O)(=O)N1CCN(c2ccc(Nc3ncc(C(N)=O)c(NC4CC4)n3)cc2)CC1 [4-(cyclopropylamino)-2-(4-(4-(ethylsulfonyl)piperazin-1-yl)phenylamino)pyrimidine-5-carboxamide],pH of supernatant,[1]; [5],2.8
same,pH of supernatant,[1]; [6],2.6
same,pH of supernatant,[1]; [7],2.5
same,pH of supernatant,[1]; [8],2.4
same,Kinetic solubility,"[1]; water, 1 h, listed as Naphthalene disulfonate Type A",1.4 µg/mL
same,Kinetic solubility,"[1]; water, 2 h, listed as Naphthalene disulfonate Type A",2.5 µg/mL
same,Kinetic solubility,"[1]; water, 4 h, listed as Naphthalene disulfonate Type A",1.5 µg/mL
same,Kinetic solubility,"[1]; water, 24 h, listed as Naphthalene disulfonate Type A",1.6 µg/mL
same,Solubility (mg/mL) 1 h,[2]; [9],0.019 mg/mL
same,Solubility (mg/mL) 2 h,[2]; [9],0.016 mg/mL
same,Solubility (mg/mL) 4 h,[2]; [9],0.018 mg/mL
same,Solubility (mg/mL) 24 h,[2]; [9],0.016 mg/mL
same,pH 1 h,[2]; [9],2.0
same,pH 2 h,[2]; [9],1.9
same,pH 4 h,[2]; [9],2.0
same,pH 24 h,[2]; [9],1.8
same,Solubility (mg/mL) 1 h,"[3]; FaSSIF, 1 h, listed as Naphthalene disulfonate Type A",0.0035 mg/mL
same,Solubility (mg/mL) 2 h,"[3]; FaSSIF, 2 h, listed as Naphthalene disulfonate Type A",0.0037 mg/mL
same,Solubility (mg/mL) 4 h,"[3]; FaSSIF, 4 h, listed as Naphthalene disulfonate Type A",0.0030 mg/mL
same,Solubility (mg/mL) 24 h,"[3]; FaSSIF, 24 h, listed as Naphthalene disulfonate Type A",0.0027 mg/mL
same,Final Form,"[3]; XRPD of residual solids, FaSSIF, 1 h, 2 h, 4 h, 24 h, listed as Naphthalene disulfonate Type A",New form X
same,pH 1 h,[3]; [5],2.8
same,pH 2 h,[3]; [6],2.7
same,pH 4 h,[3]; [7],2.6
same,pH 24 h,[3]; [8],2.5
same,Solubility (mg/mL) 1 h,[4]; [9],0.0088 mg/mL
same,Solubility (mg/mL) 2 h,[4]; [9],0.0079 mg/mL
same,Solubility (mg/mL) 4 h,[4]; [9],0.0069 mg/mL
same,Solubility (mg/mL) 24 h,[4]; [8],0.0059 mg/mL
same,Final Form,[4]; [8],New form X
same,pH 1 h,[4]; [9],4.6
same,pH 2 h,[4]; [9],4.6
same,pH 4 h,[4]; [9],4.6
same,pH 24 h,[4]; [8],4.6
"CCS(=O)(=O)N1CCN(c2ccc(Nc3ncc(C(N)=O)c(NC4CC4)n3)cc2)CC1 [Compound I mesylate Type A, 4-(cyclopropylamino)-2-(4-(4-(ethylsulfonyl)piperazin-1-yl)phenylamino)pyrimidine-5-carboxamide]",pH of supernatant,"[1]; 1 h, listed as Mesylate Type A",1.9
same,pH of supernatant,"[1]; 2 h, listed as Mesylate Type A",1.9
same,pH of supernatant,"[1]; 4 h, listed as Mesylate Type A",2.2
same,pH of supernatant,[1]; [10],2.0
same,Final Form of residual solids (XRPD),"[1]; water, 1 h, 2 h, 4 h, 24 h, listed as Mesylate Type A",Freebase Form II
same,Kinetic solubility,"[1]; water, 1 h, listed as Mesylate Type A",1400 µg/mL
same,Kinetic solubility,"[1]; water, 2 h, listed as Mesylate Type A",1300 µg/mL
same,Kinetic solubility,"[1]; water, 4 h, listed as Mesylate Type A",1300 µg/mL
same,Kinetic solubility,"[1]; water, 24 h, listed as Mesylate Type A",1300 µg/mL
same,Solubility (mg/mL) 1 h,[2]; listed as Mesylate Type A,0.081 mg/mL
same,Solubility (mg/mL) 2 h,[2]; listed as Mesylate Type A,0.096 mg/mL
same,Solubility (mg/mL) 4 h,[2]; listed as Mesylate Type A,0.080 mg/mL
same,Solubility (mg/mL) 24 h,[2]; listed as Mesylate Type A,0.076 mg/mL
same,pH 1 h,[2]; listed as Mesylate Type A,1.9
same,pH 2 h,[2]; listed as Mesylate Type A,2.0
same,pH 4 h,[2]; listed as Mesylate Type A,2.0
same,pH 24 h,[2]; listed as Mesylate Type A,1.9
same,Solubility (mg/mL) 1 h,"[3]; FaSSIF, 1 h, listed as Mesylate Type A",0.062 mg/mL
same,Solubility (mg/mL) 2 h,"[3]; FaSSIF, 2 h, listed as Mesylate Type A",0.055 mg/mL
same,Solubility (mg/mL) 4 h,"[3]; FaSSIF, 4 h, listed as Mesylate Type A",0.039 mg/mL
same,Solubility (mg/mL) 24 h,"[3]; FaSSIF, 24 h, listed as Mesylate Type A",0.020 mg/mL
same,pH 1 h,"[3]; 1 h, listed as Mesylate Type A",4.1
same,pH 2 h,"[3]; 2 h, listed as Mesylate Type A",3.7
same,pH 4 h,"[3]; 4 h, listed as Mesylate Type A",3.6
same,pH 24 h,[3]; [10],4.0
same,Solubility (mg/mL) 1 h,[4]; listed as Mesylate Type A,0.023 mg/mL
same,Solubility (mg/mL) 2 h,[4]; listed as Mesylate Type A,0.020 mg/mL
same,Solubility (mg/mL) 4 h,[4]; listed as Mesylate Type A,0.0084 mg/mL
same,Solubility (mg/mL) 24 h,[4]; [10],0.0083 mg/mL
same,Final Form,"[4]; 24 h (merged cell), listed as Mesylate Type A",Freebase Form II
same,pH 1 h,[4]; listed as Mesylate Type A,4.7
same,pH 2 h,[4]; listed as Mesylate Type A,4.5
same,pH 4 h,[4]; listed as Mesylate Type A,4.6
same,pH 24 h,[4]; [10],4.6
